In patent US20240067637A1, “NAPHTHYRIDINE AND PYRIDO[3,4-c]PYRIDAZINE DERIVATIVES AS GABAA ALPHA 5 RECEPTOR MODULATORS” (Richter Gedeon Nyrt., priority 2020, published 2024):

The molecules below were run against human recombinant GABAA α5β3γ2 receptor (Homo sapiens (Human), UniProt P18507+P31644) (assay: Radioligand ([3H]Ro151788) receptor binding assay). Conditions: membranes of HEK cells expressing human recombinant GABAA α5β3γ2; 0.5 nM [3H]Ro151788; 60 minutes at 4° C.; read-out: hGABAA α5 Ki.
Protocol: The GABAA α5β3γ2 protein used for the receptor binding assay was derived from membranes produced from HEK cells (Millipore CYL3073) expressing the human recombinant GABAA α5β3γ2 receptor. Cells were stored and cultured in-house according to the instructions provided by the vendor (Millipore). Cell pellet was homogenized in 10 times modified Krebs Henseleit buffer (membrane preparation buffer): 20 mM Tris, 120 mM NaCl, 100 mM KCl, 25 mM CaCl2 and 25 mM MgCl2 pH=7.4 at 4° C. using Ultra Turrax (Janke&Kunkel) maximal speed for 15 seconds. The homogenate was centrifuged at 40,000 g for 30 minutes at 4° C. Supernatant was discarded and the resulting pellet was washed in membrane preparation buffer. Pellet was resuspended in membrane preparation buffer and aliquots of 1.4 mL ampules were stored at −70° C. until use.
Receptor binding assays were performed in 96-well format in deep-well plates. For each 96-well plate one ampule of membrane homogenate was thawed and diluted in binding buffer (50 mM Tris pH=7.4, 100 mM KCl) and 200 μL was dispensed into each well. Radioligand [^3H]Ro151788 (Perkin Elmer: NET757250UC) was prepared in binding buffer and added to each well in 50 μL volume to give final concentration of 0.5 nM. Test compounds in suitable concentration(s) were added in additional 50 μL. The final assay volume was 300 μL. Incubation was carried out for 60 minutes at 4° C. For non-specific binding 10 μM unlabeled diazepam was used. After incubation samples were filtered over UniFilter® GF/BT using Filtermate Harvester (Perkin Elmer) and washed with 5×1 mL binding buffer. The plate was dried at 40° C. for an hour and 40 μL Microscint (Perkin Elmer) scintillation cocktail was added to each well. The plate was read in Microbeta (Perkin Elmer).
The specific radioligand binding (SB) was defined as the difference between total binding (Tot) and the non-specific binding (NSB). Results are expressed as a percent inhibition of specific binding obtained in the presence of compound of interest.
For IC50 and Ki determination a minimum of six drug concentrations in triplicate were used. IC50 values (i.e. concentration of compound giving 50% inhibition of specific binding) were calculated from concentration-displacement curves by sigmoidal fitting using Origin 7.5 software. Ki values (i.e. inhibition constants) were calculated using the Cheng-Prusoff equation Ki=IC50/[1+(L/KD)], where [L] is the radioligand concentration and KD the affinity of the labelled ligand for receptor. KD was determined from the Saturation analyses.

human recombinant GABAA α5β3γ2 receptor, sequence (P31644 32-462): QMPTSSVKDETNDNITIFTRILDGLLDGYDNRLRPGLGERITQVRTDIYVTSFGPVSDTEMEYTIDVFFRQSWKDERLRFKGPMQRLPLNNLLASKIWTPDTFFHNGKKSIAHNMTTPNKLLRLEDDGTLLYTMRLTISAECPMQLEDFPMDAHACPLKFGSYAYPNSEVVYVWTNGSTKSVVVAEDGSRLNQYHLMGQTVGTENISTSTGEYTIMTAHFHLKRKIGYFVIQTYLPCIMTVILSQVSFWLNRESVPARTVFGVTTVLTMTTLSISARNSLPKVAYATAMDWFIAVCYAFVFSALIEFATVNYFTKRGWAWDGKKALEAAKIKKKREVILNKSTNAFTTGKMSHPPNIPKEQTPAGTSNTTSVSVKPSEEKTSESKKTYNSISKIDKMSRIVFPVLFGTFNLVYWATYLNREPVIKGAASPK
human recombinant GABAA α5β3γ2 receptor, sequence (P28472 26-473 partner): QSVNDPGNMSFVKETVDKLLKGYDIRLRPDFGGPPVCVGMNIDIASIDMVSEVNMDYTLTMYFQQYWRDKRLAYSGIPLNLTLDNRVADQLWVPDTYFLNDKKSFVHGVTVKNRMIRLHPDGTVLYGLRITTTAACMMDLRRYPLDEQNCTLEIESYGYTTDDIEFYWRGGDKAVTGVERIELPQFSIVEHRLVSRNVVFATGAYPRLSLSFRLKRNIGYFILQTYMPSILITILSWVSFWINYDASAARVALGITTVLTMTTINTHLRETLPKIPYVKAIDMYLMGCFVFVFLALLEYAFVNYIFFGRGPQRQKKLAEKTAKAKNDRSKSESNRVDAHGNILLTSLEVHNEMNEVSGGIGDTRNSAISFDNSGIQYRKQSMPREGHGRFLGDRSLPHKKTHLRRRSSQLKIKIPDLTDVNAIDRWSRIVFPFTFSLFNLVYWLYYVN
human recombinant GABAA α5β3γ2 receptor, sequence (P18507 40-475): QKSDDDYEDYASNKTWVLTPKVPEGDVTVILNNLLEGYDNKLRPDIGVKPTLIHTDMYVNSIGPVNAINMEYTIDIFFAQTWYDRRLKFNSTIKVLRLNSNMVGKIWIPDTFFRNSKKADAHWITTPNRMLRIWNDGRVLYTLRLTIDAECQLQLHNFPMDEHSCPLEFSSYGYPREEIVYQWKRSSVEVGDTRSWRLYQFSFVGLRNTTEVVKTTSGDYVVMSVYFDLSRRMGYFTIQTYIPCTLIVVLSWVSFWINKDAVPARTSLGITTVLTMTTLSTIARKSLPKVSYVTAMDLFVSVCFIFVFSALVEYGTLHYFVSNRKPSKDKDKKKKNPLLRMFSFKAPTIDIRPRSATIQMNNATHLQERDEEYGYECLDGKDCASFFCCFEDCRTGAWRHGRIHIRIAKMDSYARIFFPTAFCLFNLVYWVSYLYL

Ki [nM] | SMILES
1.7 | CC(=O)N1CCc2cc(OCc3c(-c4ccc(C)nc4)noc3C)ncc2C1 [Example 1, 1-[6-{[5-methyl-3-(6-methylpyridin-3-yl)-1,2-oxazol-4-yl]methoxy}-3,4-dihydro-2,7-naphthyridin-2(1H)-yl]ethanone]
38 | Cc1ccc(-c2noc(C)c2COc2cc3c(cn2)CN(C(=O)OC(C)(C)C)CC3)cn1 [Example 2, tert-butyl 6-{[5-methyl-3-(6-methylpyridin-3-yl)-1,2-oxazol-4-yl]methoxyl}-1,2,3,4-tetrahydro-2,7-naphthyridine-2-carboxylate]
9.7 | CC(=O)N1CCc2cc(OCc3c(-c4ccc(C(F)(F)F)nc4)noc3C)ncc2C1 [Example 4, 1-[6-({5-methyl-3-[6-(trifluoromethyl)pyridin-3-yl]-1,2-oxazol-4-yl}methoxy)-3,4-dihydro-2,7-naphthyridin-2(1H)-yl]ethanone]
3.5 | Cc1ccc(-c2noc(C)c2COc2cc3c(cn2)CN(C(=O)CS(C)(=O)=O)CC3)cn1 [Example 5, 2-methanesulfonyl-1-(6-{[5-methyl-3-(6-methylpyridin-3-yl)-1,2-oxazol-4-yl]methoxy}-1,2,3,4-tetrahydro-2,7-naphthyridin-2-yl)ethan-1-one]
6 | Cc1ccc(-c2noc(C)c2COc2cc3c(cn2)CN(C(=O)c2cccnc2)CC3)cn1 [Example 7, 6-{[5-methyl-3-(6-methylpyridin-3-yl)-1,2-oxazol-4-yl]methoxy}-2-(pyridine-3-carbonyl)-1,2,3,4-tetrahydro-2,7-naphthyridine]
16 | Cc1ccc(-c2noc(C)c2COc2cc3c(cn2)CN(C(=O)C2CCS(=O)(=O)CC2)CC3)cn1 [Example 8, 4-(6-{[5-methyl-3-(6-methylpyridin-3-yl)-1,2-oxazol-4-yl]methoxy}-1,2,3,4-tetrahydro-2,7-naphthyridine-2-carbonyl)-1lambda6-thiane-1,1-dione]
10 | Cc1ccc(-c2noc(C)c2COc2cc3c(cn2)CN(C(=O)c2ccncc2)CC3)cn1 [Example 9, 6-{[5-methyl-3-(6-methylpyridin-3-yl)-1,2-oxazol-4-yl]methoxy}-2-(pyridine-4-carbonyl)-1,2,3,4-tetrahydro-2,7-naphthyridine]
17 | Cc1ccc(-c2noc(C)c2COc2cc3c(cn2)CN(C(=O)C2CCOCC2)CC3)cn1 [Example 10, 6-{[5-methyl-3-(6-methylpyridin-3-yl)-1,2-oxazol-4-yl]methoxy}-2-(oxane-4-carbonyl)-1,2,3,4-tetrahydro-2,7-naphthyridine]
7.2 | Cc1ccc(-c2noc(C)c2COc2cc3c(cn2)CN(C(=O)C2CCOC2)CC3)cn1 (centres unmarked) [Example 12, 6-{[5-methyl-3-(6-methylpyridin-3-yl)-1,2-oxazol-4-yl]methoxy}-2-(oxolane-3-carbonyl)-1,2,3,4-tetrahydro-2,7-naphthyridine]
8.3 | Cc1ccc(-c2noc(C)c2COc2cc3c(cn2)CN(C(=O)C2CC(=O)N(C)C2)CC3)cn1 (centres unmarked) [Example 15, 1-methyl-4-(6-{[5-methyl-3-(6-methylpyridin-3-yl)-1,2-oxazol-4-yl]methoxy}-1,2,3,4-tetrahydro-2,7-naphthyridine-2-carbonyl)pyrrolidin-2-one]
11 | Cc1ccc(-c2noc(C)c2COc2cc3c(cn2)CN(C(=O)C2CC(=O)N(C(C)C)C2)CC3)cn1 (centres unmarked) [Example 16, 4-(6-{[5-methyl-3-(6-methylpyridin-3-yl)-1,2-oxazol-4-yl]methoxy}-1,2,3,4-tetrahydro-2,7-naphthyridine-2-carbonyl)-1-(propan-2-yl)pyrrolidin-2-one]
9 | Cc1ccc(-c2noc(C)c2COc2cc3c(cn2)CN(C(=O)C2CCC(=O)N(C)C2)CC3)cn1 (centres unmarked) [Example 20, 1-methyl-5-(6-{[5-methyl-3-(6-methylpyridin-3-yl)-1,2-oxazol-4-yl]methoxy}-1,2,3,4-tetrahydro-2,7-naphthyridine-2-carbonyl)piperidin-2-one]
5.7 | Cc1ccc(-c2noc(C)c2COc2cc3c(cn2)CN(C(=O)[C@H]2CCC(=O)N2C)CC3)cn1 [Example 21, (5R)-1-methyl-5-(6-{[5-methyl-3-(6-methylpyridin-3-yl)-1,2-oxazol-4-yl]methoxy}-1,2,3,4-tetrahydro-2,7-naphthyridine-2-carbonyl)pyrrolidin-2-one]
9.4 | Cc1ccc(-c2noc(C)c2COc2cc3c(cn2)CN(C(=O)[C@@H]2CCC(=O)N2C)CC3)cn1 [Example 22, (5S)-1-methyl-5-(6-{[5-methyl-3-(6-methylpyridin-3-yl)-1,2-oxazol-4-yl]methoxy}-1,2,3,4-tetrahydro-2,7-naphthyridine-2-carbonyl)pyrrolidin-2-one]
6.9 | CCN1CC(C(=O)N2CCc3cc(OCc4c(-c5ccc(C)nc5)noc4C)ncc3C2)CC1=O (centres unmarked) [Example 23, 1-ethyl-4-(6-{[5-methyl-3-(6-methylpyridin-3-yl)-1,2-oxazol-4-yl]methoxy}-1,2,3,4-tetrahydro-2,7-naphthyridine-2-carbonyl)pyrrolidin-2-one]
2.3 | CC(=O)N1CCc2cc(OCc3c(-c4ccc(C)nc4)noc3C)nnc2C1 [Example 24, 1-(3-{[5-methyl-3-(6-methylpyridin-3-yl)-1,2-oxazol-4-yl]methoxy}-5H,6H,7H,8H-pyrido[3,4-c]pyridazin-7-yl)ethan-1-one]
13 | Cc1ccc(-c2noc(C)c2COc2cc3c(nn2)CN(C(=O)N2CCOCC2)CC3)cn1 [Example 26, 4-(3-{[5-methyl-3-(6-methylpyridin-3-yl)-1,2-oxazol-4-yl]methoxy}-5H,6H,7H,8H-pyrido[3,4-c]pyridazine-7-carbonyl)morpholine]
10 | Cc1ccc(-c2noc(C)c2COc2cc3c(nn2)CN(C(=O)C2CCOCC2)CC3)cn1 [Example 27, 2-methyl-5-[5-methyl-4-({[7-(oxane-4-carbonyl)-5H,6H,7H,8H-pyrido[3,4-c]pyridazin-3-yl]oxy}methyl)-1,2-oxazol-3-yl]pyridine]
4.4 | Cc1ccc(-c2noc(C)c2COc2cc3c(nn2)CN(C(=O)C2CC2)CC3)cn1 [Example 28, 5-{4-[({7-cyclopropanecarbonyl-5H,6H,7H,8H-pyrido[3,4-c]pyridazin-3-yl}oxy)methyl]-5-methyl-1,2-oxazol-3-yl}-2-methylpyridine]
6 | CCC(=O)N1CCc2cc(OCc3c(-c4ccc(C)nc4)noc3C)nnc2C1 [Example 29, 1-(3-{[5-methyl-3-(6-methylpyridin-3-yl)-1,2-oxazol-4-yl]methoxy}-5H,6H,7H,8H-pyrido[3,4-c]pyridazin-7-yl)propan-1-one]
4.3 | Cc1ccc(-c2noc(C)c2COc2cc3c(nn2)CN(C(=O)C(C)C)CC3)cn1 [Example 31, 2-methyl-1-(3-{[5-methyl-3-(6-methylpyridin-3-yl)-1,2-oxazol-4-yl]methoxy}-5H,6H,7H,8H-pyrido[3,4-c]pyridazin-7-yl)propan-1-one]
2.2 | Cc1ccc(-c2noc(C)c2COc2cc3c(nn2)CN(C(=O)NC2CC2)CC3)cn1 [Example 33, N-cyclopropyl-3-{[5-methyl-3-(6-methylpyridin-3-yl)-1,2-oxazol-4-yl]methoxy}-5H,6H,7H,8H-pyrido[3,4-c]pyridazine-7-carboxamide]

SMILES | Ki [nM]
Cc1ccc(-c2noc(C)c2COc2cc3c(nn2)CN(C(=O)CF)CC3)cn1 [Example 30, 2-fluoro-1-(3-{[5-methyl-3-(6-methylpyridin-3-yl)-1,2-oxazol-4-yl]methoxy}-5H,6H,7H,8H-pyrido[3,4-c]pyridazin-7-yl)ethan-1-one] | 1.9
